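A five-concentration, 48-hour dose response in 96-well plates underlies each endpoint, interpolated linearly between surrounding concentrations. Abbreviation: GI50, concentration required for 50% inhibition of growth. TGI: concentration producing complete growth inhibition.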
Experiments:
Assay in all cases: DTP human tumour cell line panel, 48 h
T-47D breast = system: T-47D breast
IGROV1 ovarian = system: IGROV1 ovarian
RPMI-8226 leukemia = system: RPMI-8226 leukemia
NCI-H23 lung = system: NCI-H23 lung
OVCAR-5 ovarian = system: OVCAR-5 ovarian
NCI-H226 lung = system: NCI-H226 lung
COLO 205 colon = system: COLO 205 colon
HCT-15 colon = system: HCT-15 colon
NCI-H522 lung = system: NCI-H522 lung
DU-145 prostate = system: DU-145 prostate
SN12C renal = system: SN12C renal
SW-620 colon = system: SW-620 colon
HOP-62 NSCLC = system: HOP-62 NSCLC
MDA-MB-231 breast = system: MDA-MB-231 breast
OVCAR-8 ovarian = system: OVCAR-8 ovarian
SK-OV-3 ovarian = system: SK-OV-3 ovarian
MCF7 breast = system: MCF7 breast
SF-295 CNS = system: SF-295 CNS
RXF 393 renal = system: RXF 393 renal
HCC-2998 colon = system: HCC-2998 colon
NCI-H460 lung = system: NCI-H460 lung
LOX IMVI melanoma = system: LOX IMVI melanoma
HT29 colon = system: HT29 colon
SK-MEL-5 melanoma = system: SK-MEL-5 melanoma
UACC-257 melanoma = system: UACC-257 melanoma
SNB-75 CNS = system: SNB-75 CNS
786-0 renal = system: 786-0 renal
SR leukemia = system: SR leukemia
SNB-19 CNS = system: SNB-19 CNS
HOP-92 NSCLC = system: HOP-92 NSCLC
K-562 leukemia = system: K-562 leukemia
KM12 colon = system: KM12 colon
U251 CNS = system: U251 CNS
PC-3 prostate = system: PC-3 prostate
SK-MEL-2 melanoma = system: SK-MEL-2 melanoma
SF-539 CNS = system: SF-539 CNS
SK-MEL-28 melanoma = system: SK-MEL-28 melanoma
CAKI-1 renal = system: CAKI-1 renal
M14 melanoma = system: M14 melanoma
SF-268 CNS = system: SF-268 CNS
ACHN renal = system: ACHN renal
A549 NSCLC = system: A549 NSCLC
OVCAR-3 ovarian = system: OVCAR-3 ovarian
UO-31 renal = system: UO-31 renal
TK-10 renal = system: TK-10 renal
OVCAR-4 ovarian = system: OVCAR-4 ovarian
MALME-3M melanoma = system: MALME-3M melanoma
A498 renal = system: A498 renal
UACC-62 melanoma = system: UACC-62 melanoma
HCT-116 colon = system: HCT-116 colon
HL-60(TB) leukemia = system: HL-60(TB) leukemia
NCI/ADR-RES ovarian = system: NCI/ADR-RES ovarian
MDA-MB-435 = system: MDA-MB-435
MOLT-4 leukemia = system: MOLT-4 leukemia
BT-549 breast = system: BT-549 breast

SMILES: COc1cc(C)c2sc3ccccc3c(=O)c2c1NCCN(C)C
- GI50 (T-47D breast): 2.58 µM
- TGI (T-47D breast): 9.4 µM
- GI50 (IGROV1 ovarian): 3.56 µM
- TGI (IGROV1 ovarian): 14.5 µM
- GI50 (RPMI-8226 leukemia): 2.85 µM
- TGI (RPMI-8226 leukemia): 8.87 µM
- GI50 (NCI-H23 lung): 13.1 µM
- TGI (NCI-H23 lung): 28 µM
- GI50 (OVCAR-5 ovarian): 9.57 µM
- TGI (OVCAR-5 ovarian): 22.3 µM
- GI50 (NCI-H226 lung): 2.3 µM
- TGI (NCI-H226 lung): 6.81 µM
- GI50 (COLO 205 colon): 1.86 µM
- TGI (COLO 205 colon): 3.51 µM
- GI50 (HCT-15 colon): 3.13 µM
- TGI (HCT-15 colon): 11.2 µM
- GI50 (NCI-H522 lung): 4.91 µM
- TGI (NCI-H522 lung): 17.9 µM
- GI50 (DU-145 prostate): 7 µM
- TGI (DU-145 prostate): 20 µM
- GI50 (SN12C renal): 5.41 µM
- TGI (SN12C renal): 20 µM
- GI50 (SW-620 colon): 3.39 µM
- TGI (SW-620 colon): 14.5 µM
- GI50 (HOP-62 NSCLC): 7.1 µM
- TGI (HOP-62 NSCLC): 19.6 µM
- GI50 (MDA-MB-231 breast): 3.48 µM
- TGI (MDA-MB-231 breast): 15.9 µM
- GI50 (OVCAR-8 ovarian): 5.44 µM
- TGI (OVCAR-8 ovarian): 19.1 µM
- GI50 (SK-OV-3 ovarian): 10.9 µM
- TGI (SK-OV-3 ovarian): 23.6 µM
- GI50 (MCF7 breast): 2.4 µM
- TGI (MCF7 breast): 10.2 µM
- GI50 (SF-295 CNS): 6.25 µM
- TGI (SF-295 CNS): 19.5 µM
- GI50 (RXF 393 renal): 2.4 µM
- TGI (RXF 393 renal): 9.41 µM
- GI50 (HCC-2998 colon): 2.99 µM
- TGI (HCC-2998 colon): 9.03 µM
- GI50 (NCI-H460 lung): 3.26 µM
- TGI (NCI-H460 lung): 12.3 µM
- GI50 (LOX IMVI melanoma): 3.66 µM
- TGI (LOX IMVI melanoma): 13.1 µM
- GI50 (HT29 colon): 2.62 µM
- TGI (HT29 colon): 9.15 µM
- GI50 (SK-MEL-5 melanoma): 1.67 µM
- TGI (SK-MEL-5 melanoma): 3.08 µM
- GI50 (UACC-257 melanoma): 2.06 µM
- TGI (UACC-257 melanoma): 3.97 µM
- GI50 (SNB-75 CNS): 2.21 µM
- TGI (SNB-75 CNS): 13.2 µM
- GI50 (786-0 renal): 8.34 µM
- TGI (786-0 renal): 22.2 µM
- GI50 (SR leukemia): 2.79 µM
- TGI (SR leukemia): 7.91 µM
- GI50 (SNB-19 CNS): 12.9 µM
- TGI (SNB-19 CNS): 27.2 µM
- GI50 (HOP-92 NSCLC): 1.51 µM
- TGI (HOP-92 NSCLC): 8.64 µM
- GI50 (K-562 leukemia): 2.3 µM
- TGI (K-562 leukemia): 4.61 µM
- GI50 (KM12 colon): 5.22 µM
- TGI (KM12 colon): 18.9 µM
- GI50 (U251 CNS): 3.66 µM
- TGI (U251 CNS): 14.1 µM
- GI50 (PC-3 prostate): 4.28 µM
- TGI (PC-3 prostate): 17.4 µM
- GI50 (SK-MEL-2 melanoma): 6.64 µM
- TGI (SK-MEL-2 melanoma): 19.6 µM
- GI50 (SF-539 CNS): 4.73 µM
- TGI (SF-539 CNS): 17.4 µM
- GI50 (SK-MEL-28 melanoma): 1.83 µM
- TGI (SK-MEL-28 melanoma): 3.42 µM
- GI50 (CAKI-1 renal): 5.87 µM
- TGI (CAKI-1 renal): 19.4 µM
- GI50 (M14 melanoma): 2.16 µM
- TGI (M14 melanoma): 4.33 µM
- GI50 (SF-268 CNS): 8.57 µM
- TGI (SF-268 CNS): 22.3 µM
- GI50 (ACHN renal): 2.97 µM
- TGI (ACHN renal): 11.3 µM
- GI50 (A549 NSCLC): 4.05 µM
- TGI (A549 NSCLC): 15.7 µM
- GI50 (OVCAR-3 ovarian): 10.5 µM
- TGI (OVCAR-3 ovarian): 23.9 µM
- GI50 (UO-31 renal): 3.46 µM
- TGI (UO-31 renal): 16.1 µM
- GI50 (TK-10 renal): 8.83 µM
- TGI (TK-10 renal): 21.2 µM
- GI50 (OVCAR-4 ovarian): 8.08 µM
- TGI (OVCAR-4 ovarian): 20.9 µM
- GI50 (MALME-3M melanoma): 2.11 µM
- TGI (MALME-3M melanoma): 5.39 µM
- GI50 (A498 renal): 8.83 µM
- TGI (A498 renal): 22.1 µM
- GI50 (UACC-62 melanoma): 1.87 µM
- TGI (UACC-62 melanoma): 3.8 µM
- GI50 (HCT-116 colon): 3.73 µM
- TGI (HCT-116 colon): 13.6 µM
- GI50 (HL-60(TB) leukemia): 4.68 µM
- TGI (HL-60(TB) leukemia): 16.3 µM
- GI50 (NCI/ADR-RES ovarian): 12.4 µM
- TGI (NCI/ADR-RES ovarian): 27 µM
- GI50 (MDA-MB-435): 2.91 µM
- TGI (MDA-MB-435): 10.6 µM
- GI50 (MOLT-4 leukemia): 2.58 µM
- TGI (MOLT-4 leukemia): 6.81 µM
- GI50 (BT-549 breast): 12.5 µM
- TGI (BT-549 breast): 25.4 µM

Source: PubChem BioAssay (NCI)
